# Laboratory results published in paper PMC10144514, “Imageological/Structural Study regarding the Improved Pharmacokinetics by ^68Ga-Labeled PEGylated PSMA Multimer in Prostate Cancer” (Pharmaceuticals, 2023).
# Tests used:
# PC-3 PIP tumor [1] = assay: Micro animal PET/CT and SPECT/CT imaging of PC-3 PIP tumor-bearing mice; format: in vivo
# Description: PC-3 PIP cells at the logarithmic phase were collected after trypsinization and re-suspended to 5 × 10^7/mL with serum-free medium after removing the supernatant. Mice (6 weeks) were subcutaneously injected with 200 μL of cell suspension, and utilized for small animal PET/CT imaging, SPECT/CT imaging, and biodistribution analysis when tumor volume was ≧100 mm^3. All animal experiments were conducted with the approval of The Southwest Medical University Animal Ethics Committee. Tumor-bearing mice (n = 3) were intravenously injected with 0.1 mL (80μCi) of freshly prepared ^68Ga/^177Lu-labeled PSMA ligands. PET/CT imaging was performed at 0.5/1/2/5 h after injection, and SPECT/CT imaging was performed at 6/24/48 h after injection. The acquired PET/CT and SPECT/CT data were re-constructed by OSEM (ordered subsets expectation maximization).
# PC-3 PIP cells = assay: Cellular uptake and 2-PMPA blocking in PC-3 PIP cells; format: cell-based
# Description: Cellular experiments in this study were performed in the PC-3 PIP cell line. PC-3 PIP, a PCa cell line with stably high-expressed PSMA [28], was a gift from Professor Chen from the National University of Singapore. Cells were cultured in ATCC 1640 medium with 10% of FBS, L-glutamine, and antibiotic (37 °C, 5% CO2).
# PC-3 PIP cells were cultured in ATCC 1640 medium containing 10% FBS. When cultured to 70–80% confluency, cells were collected and seeded in a 24-well plate. After culturing overnight (37 °C, 5% CO2), the culture medium was replaced by serum-free ATCC 1640 medium (serum-starved cell culture) for 0.5 h. Then nuclide-labeled compounds were added into wells (50 µL, 1 μCi/well) with gentle shakes to ensure they were well distributed. After incubating for 30 min/60 min/120 min, cells at each time point were digested by NaOH and measured by the γ-counter to calculate the uptake rate (n ≥ 3). Cells were co-incubated with glycine (pH = 2.8) for 1 min, and then the procedure above was repeated after dissolving in 1 M NaOH (procedure for internalization). Cells were incubated with PSMA inhibitor (2-PMPA) for blocking assays for 15 min before adding the labeled ligands.
# human albumin = target: T1, human albumin (Homo sapiens, UniProt P02768); assay: In vitro determination of albumin binding (ultrafiltration); format: in vitro ADME; conditions: human serum albumin 20 mg/mL, 37 °C, ^68Ga-labeled
# T1 construct: purchased Sigma-Aldrich (Shanghai, China) or Shanghai yuanye Bio-Technology (general reagents statement; not tied to albumin)
# Description: The albumin-binding rate of each ligand was measured by the γ-counter. ^68Ga-labeled PSMA ligand (≈50 μCi) was added into the human albumin solution (20 mg/mL). The mixture was incubated in a water bath (37 °C) for 30 min and 120 min, followed by ultrafiltration centrifugation for 5 min (10 kD, 10,000 rpm). The compound activities of the uncombined albumin or those retained on the filter membrane were measured by the γ counter, according to which the percentage of serum albumin binding activity (retained on the filter membrane) to total activity was calculated.
# The calculation was based on the following equation: (counting of albumin retained on membrane − background counting)/(counting of albumin retained on membrane + counting of filtered liquid − 2* background counting) × 100%, and the average of three sets of data was taken as the final result.
# [2] = In vitro stability of radiotracers in PBS (radiochemical purity by HPLC); format: physicochemical; conditions: incubated in PBS at 37 °C for 2 h
# Description: (§1) All solvents and reagents were purchased from Sigma-Aldrich (Shanghai, China) and Shanghai yuanye Bio-Technology (Shanghai, China). DOTA-(1P-PEG4), DOTA-(2P-PEG0), DOTA(DOTA-(2P-PEG4), and (DOTA-(2P-PEG4)2 were synthesized by Bidepharm (Shanghai, China), and characterized by HPLC and mass spectrometry. Radio-HPLC analyses of the radiotracers were carried out using C18 column (5 µm, 4.6 × 250 mm, ZORBAX Eclipse Plus, Agilent, Milford, MA, USA), and analytical grade solvent by solvent A (0.1% trifluoroacetic acid (TFA) in water) and solvent B (0.1% TFA in acetonitrile). A ^68Ge/^68Ga generator was purchased from ITM Medical Isotopes (Munich, Germany). The γ count was measured by a CAPRAC-t γ counter containing a NaI crystal (CAPINTEC, Ramsey, NJ, USA). All in vitro experiments regarding PSMA and the determination of radiotracers’ stability were performed in triplicate to ensure reproducibility.
# (§2) […] was eluted from a ^68Ge/^68Ga generator with 0.05M HCl (≈200 MBq/mL). […]
# (§3) A total of four kinds of PSMA-related ligands were designed and synthesized. The radiochemical purity of these four ^68Ga/^177Lu-labeled compounds was detected by HPLC (Figure 1) and thin-layer chromatography (Figure S5). […]
# [3] = Lipophilicity determination (n-octanol/PBS partition); format: physicochemical; conditions: ^68Ga-labeled ligand
# Description: Nuclide-labeled ligand (20 μL, ≈50 μCi), PBS (480 μL), and saturated n-octanol (500 μL) were added in a 1 mL EP tube, followed by vortex. Then the mixture was centrifuged at a low temperature (−5 °C) for 10 min until the mixture was separated into the upper and the lower layers. Liquids in the two phases were transferred into EP tubes and measured by the γ-counter. The calculation of the LogP value was based on the following equation: LogP = Lg [(counting of the organic phase − background counting)/(counting of the aqueous phase − background counting)]
# PSMA (PC-3 PIP cells) = target: T2, PSMA (PC-3 PIP cells) (Homo sapiens, UniProt Q04609); assay: Competitive binding IC50 against [^68Ga]Ga-PSMA-11 in PC-3 PIP cells; conditions: competition with [^68Ga]Ga-PSMA-11, 1 h
# T2 construct: expressed in transfected cells; host or cells: PC-3 PIP cells (PC-3 stably expressing PSMA; gift from Professor Chen, National University of Singapore)
# Description: PC-3 PIP cells were seeded in 96-well plates in triplicate and cultured to a density of 5* × 10^5 cells per well. [^68Ga]Ga-PSMA-11 was added into wells after serum-starved cell culture (1 μCi/well, ≈171 nmol/L), after which different PBS-diluted competitive ligands were added in wells and cultured for another hour. Then cells were washed with cold PBS twice removing the supernatant. Cells were collected and transferred to test tubes for counting by the γ-counter. IC50 values were analyzed and confirmed by nonlinear regression on GraphPad Prism Software.
# PC-3 PIP tumor [4] = assay: Biodistribution in PC-3 PIP tumor-bearing mice; format: in vivo; conditions: 2 h p.i.
# Description: PC-3 PIP cells at the logarithmic phase were collected after trypsinization and re-suspended to 5 × 10^7/mL with serum-free medium after removing the supernatant. Mice (6 weeks) were subcutaneously injected with 200 μL of cell suspension, and utilized for small animal PET/CT imaging, SPECT/CT imaging, and biodistribution analysis when tumor volume was ≧100 mm^3. All animal experiments were conducted with the approval of The Southwest Medical University Animal Ethics Committee.
# PC-3 PIP tumor-bearing mice (n > 3) were divided into four groups and respectively injected with 0.1 mL (70μCi) of [^68Ga]Ga-DOTA-(1P-PEG4), [^68Ga]Ga-DOTA-(2P-PEG0), [^68Ga]Ga-DOTA-(2P-PEG4), and [^68Ga]Ga-DOTA-(2P-PEG4)2 through the caudal vein. Mice were executed at 30 min/60 min/120 min after injection. Heart, blood, lung, liver, stomach, spleen, kidney, muscle, intestine, bone, salivary gland, and tumor were collected and detected by the γ-counter. The fitted curve was calculated on the basis of standard diluted samples of the initial dosage, and then the percentage of injected dose per gram of tissue (ID%/g) was calculated.
# [5] = In vitro stability of radiotracers in FBS (radiochemical purity by HPLC); format: in vitro ADME; conditions: incubated in FBS at 37 °C for 2 h
# Description: as §1, §2, §3
# T1 sequence (P02768 25-609): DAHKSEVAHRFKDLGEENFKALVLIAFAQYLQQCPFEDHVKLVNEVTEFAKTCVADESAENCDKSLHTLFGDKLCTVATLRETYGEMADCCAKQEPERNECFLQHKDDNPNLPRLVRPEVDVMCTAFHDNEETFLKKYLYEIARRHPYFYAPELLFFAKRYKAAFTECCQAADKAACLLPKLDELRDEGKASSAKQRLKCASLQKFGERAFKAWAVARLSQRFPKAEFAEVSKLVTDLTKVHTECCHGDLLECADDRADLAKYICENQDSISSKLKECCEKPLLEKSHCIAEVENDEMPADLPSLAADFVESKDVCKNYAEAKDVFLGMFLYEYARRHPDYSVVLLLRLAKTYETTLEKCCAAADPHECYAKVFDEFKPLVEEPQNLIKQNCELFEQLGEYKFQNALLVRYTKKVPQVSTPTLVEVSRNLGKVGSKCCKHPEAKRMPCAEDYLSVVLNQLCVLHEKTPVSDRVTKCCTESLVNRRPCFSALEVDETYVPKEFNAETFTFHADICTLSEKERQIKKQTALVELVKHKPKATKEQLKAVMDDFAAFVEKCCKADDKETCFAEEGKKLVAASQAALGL
# T2 sequence (Q04609 whole entry): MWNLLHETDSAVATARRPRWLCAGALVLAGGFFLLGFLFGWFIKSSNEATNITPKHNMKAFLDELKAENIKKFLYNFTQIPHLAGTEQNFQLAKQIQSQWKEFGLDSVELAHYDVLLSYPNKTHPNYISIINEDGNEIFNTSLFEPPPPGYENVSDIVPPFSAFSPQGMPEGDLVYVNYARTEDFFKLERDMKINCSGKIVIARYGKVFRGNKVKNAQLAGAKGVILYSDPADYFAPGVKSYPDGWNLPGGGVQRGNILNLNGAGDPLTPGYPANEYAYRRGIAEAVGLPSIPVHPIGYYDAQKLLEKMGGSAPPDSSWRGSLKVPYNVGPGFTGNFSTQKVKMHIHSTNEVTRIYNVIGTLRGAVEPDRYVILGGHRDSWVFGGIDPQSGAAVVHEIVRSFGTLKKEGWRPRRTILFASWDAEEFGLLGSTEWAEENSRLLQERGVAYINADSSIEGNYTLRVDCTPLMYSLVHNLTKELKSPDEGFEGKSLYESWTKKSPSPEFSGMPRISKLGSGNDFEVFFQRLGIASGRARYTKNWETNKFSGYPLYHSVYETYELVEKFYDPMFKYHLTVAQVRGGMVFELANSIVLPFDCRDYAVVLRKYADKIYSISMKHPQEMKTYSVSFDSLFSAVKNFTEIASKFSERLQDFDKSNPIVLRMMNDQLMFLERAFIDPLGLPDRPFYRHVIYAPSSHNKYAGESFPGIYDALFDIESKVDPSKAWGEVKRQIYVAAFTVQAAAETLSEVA
Structure (SMILES),"tumor uptake on PET/CT imaging (PC-3 PIP tumor [1]; ^68Ga-labeled, PET/CT at 0.5/1/2/5 h after injection)","uptake rate after co-incubation with PSMA inhibitor 2-PMPA (PC-3 PIP cells; PC-3 PIP cells blocked by 2-PMPA, uptake at one hour (Figure 3C))","2 h cellular uptake rate (PC-3 PIP cells; PC-3 PIP cells, 2 h, ^68Ga-labeled)",albumin-binding rate (0.5 h) (human albumin; 0.5 h),albumin-binding rate (2 h) (human albumin; 2 h),radiochemical purity (PBS) at 2 h [2],logP [3],IC50 (PSMA (PC-3 PIP cells)),2 h blood uptake value (PC-3 PIP tumor [4]),radiochemical purity (FBS) at 2 h [5],"kidney uptake on SPECT/CT imaging at 6 h (PC-3 PIP tumor [1]; ^177Lu-labeled, SPECT/CT, 6 h after injection)"
"O=C(O)CC[C@H](NC(=O)N[C@@H](CCCCNC(=O)[C@@H](CCC(=O)NCCCC[C@@H](NC(=O)N[C@H](CCC(=O)O)C(=O)O)C(=O)O)NC(=O)CN1CCN(CC(=O)O)CCN(CC(=O)O)CCN(CC(=O)O)CC1)C(=O)O)C(=O)O [[^68Ga]Ga-DOTA-(2P-PEG0), metal not drawn]",began to decline at 2 h after injection,1.00 ± 0.16%,8.39 ± 3.65%,54.84%,54.29%,95.78%,-2.84,455 nM,2.78 ± 1.80 ID%/g,95.21%,–
"O=C(O)CC[C@H](NC(=O)N[C@@H](CCCCNC(=O)[C@H](Cc1ccc2ccccc2c1)NC(=O)[C@H]1CC[C@H](CNC(=O)CN2CCN(CC(=O)O)CCN(CC(=O)O)CCN(CC(=O)O)CC2)CC1)C(=O)O)C(=O)O [[^177Lu]Lu-PSMA-617, metal not drawn, reference compound]",–,–,–,–,–,–,–,–,–,–,detectable kidney uptake at 6 h
